In patent publication US20230340011A1 (Asteroid Therapeutics, priority 2022, published 2023):
Like-named read-outs stand apart in the source and are kept apart here.

Tests used:
[1] = molecular target: LXRβ (Homo sapiens (Human), UniProt P55055); experiment: In vitro assay LXRβ: PathHunter NHR CHO cells, LXRβ / Steroid Receptor Co-activator Peptide enzyme fragment complementation; assay type: cell-based; settings: PathHunter NHR CHO cells, full-length human LXRβ and SRCP, chemiluminescent signal; read-out: LXRβ PPI
Summary of the method: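 Co-activator recruitment measured by chemiluminescence after signal generation. The CHO line carries full-length human LXRβ tagged with ProLink and an SRCP–enzyme acceptor fusion in the nucleus; cells sat overnight at 37° C before testing, in charcoal-dextran filtered serum medium with 1% final vehicle.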

[2] = molecular target: SREBP-2 (Homo sapiens (Human), UniProt Q12772); experiment: In vitro assay SREBP-2: PathHunter U2OS SREBP-2 Nuclear Translocation Cell Line, U18666A-stimulated; assay type: cell-based
[3] = PathHunter U2OS SREBP-2 nuclear translocation cells, U18666A 10 μM, overnight (16 hours)

Chain of LXRβ (P55055 whole entry, the tested form may be a part): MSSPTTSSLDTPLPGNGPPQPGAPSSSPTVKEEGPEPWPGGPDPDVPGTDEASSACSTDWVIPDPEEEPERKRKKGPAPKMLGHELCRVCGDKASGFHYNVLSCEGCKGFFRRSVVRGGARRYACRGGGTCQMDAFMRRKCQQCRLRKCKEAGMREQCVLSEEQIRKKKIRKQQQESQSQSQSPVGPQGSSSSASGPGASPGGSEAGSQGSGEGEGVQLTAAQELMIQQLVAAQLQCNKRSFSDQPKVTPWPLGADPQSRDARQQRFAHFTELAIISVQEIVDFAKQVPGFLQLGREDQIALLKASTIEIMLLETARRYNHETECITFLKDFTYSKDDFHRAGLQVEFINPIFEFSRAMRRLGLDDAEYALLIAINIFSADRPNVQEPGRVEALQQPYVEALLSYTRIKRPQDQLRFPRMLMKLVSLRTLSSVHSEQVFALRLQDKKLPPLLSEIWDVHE

Structure (SMILES)	EC50 [1] [nM]	IC50 [2, 3] [nM]	IC50 [2] [nM]
C[C@H](OC(=O)C(=O)N1CCCCC1)[C@H]1CC[C@H]2[C@@H]3CC=C4C[C@@H](O)CC[C@]4(C)[C@H]3CC[C@]12C [Example 199, (1S)-1-[(1S,3aS,3bS,7S,9aR,9bS,11aS)-7-hydroxy-9a,11a-dimethyl-1H,2H,3H,3aH,3bH,4H,6H,7H,8H,9H,9aH,9bH,10H,11H,11aH-cyclopenta[a]phenanthren-1-yl]ethyl2-oxo-2-(piperidin-1-yl)acetate]	250 to 1000	< 250	
C[C@H](CCC(=O)N1CCN(C(=O)c2ncccn2)CC1)[C@H]1CC[C@H]2[C@@H]3CC=C4C[C@@H](O)CC[C@]4(C)[C@H]3CC[C@]12C [Example 332, (R)-4-((3S,8S,9S,10R,13R,14S,17R)-3-hydroxy-10,13-dimethyl-2,3,4,7,8,9,10,11,12,13,14,15,16,17-tetradecahydro-1H-cyclopenta[a]phenanthren-17-yl)-1-(4-(pyrimidine-2-carbonyl)piperazin-1-yl)pentan-1-one]	> 10000	< 250	
C[C@H]1CCCN(C(=O)CC[C@@H](C)[C@H]2CC[C@H]3[C@@H]4CC=C5C[C@@H](O)CC[C@]5(C)[C@H]4CC[C@]23C)C1 [Example 110, (R)-4-((3S,8S,9S,10R,13R,14S,17R)-3-hydroxy-10,13-dimethyl-2,3,4,7,8,9,10,11,12,13,14,15,16,17-tetradecahydro-1H-cyclopenta[a]phenanthren-17-yl)-1-((S)-3-methylpiperidin-1-yl) pentan-1-one]	1000 to 10000	< 250	
Cc1cc(CC[C@@H](C)[C@H]2CC[C@H]3[C@@H]4CC=C5C[C@@H](O)CC[C@]5(C)[C@H]4CC[C@]23C)ncn1 [Example 189, (1R,3aS,3bS,7S,9aR,9bS,11aR)-9a,11a-dimethyl-1-[(2R)-4-(6-methylpyrimidin-4-yl)butan-2-yl]-1H,2H,3H,3aH,3bH,4H,6H,7H,8H,9H,9aH,9bH,10H,11H,11aH-cyclopenta[a]phenanthren-7-ol]	1000 to 10000	< 250	
C[C@H](CCc1ncccc1C(F)(F)F)[C@H]1CC[C@H]2[C@@H]3CC=C4C[C@@H](O)CC[C@]4(C)[C@H]3CC[C@]12C [Example 185, (1R,3aS,3bS,7S,9aR,9bS,11aR)-9a,11a-dimethyl-1-[(2R)-4-[3-(trifluoromethyl)pyridin-2-yl]butan-2-yl]-1H,2H,3H,3aH,3bH,4H,6H,7H,8H,9H,9aH,9bH,10H,11H, 11 aH-cyclopenta[a]phenanthren-7-ol]	1000 to 10000	250 to 1000	
CC[C@]1(O)CC[C@@]2(C)C(=CC[C@H]3[C@@H]4CC[C@H]([C@H](C)CCC(=O)N5CCN(C(=O)OC)CC5)[C@@]4(C)CC[C@@H]32)C1 [Example 420, Methyl 4-[(4R)-4-[(1R,3aS,3bS,7S,9aR,9bS,11aR)-7-ethyl-7-hydroxy-9a,11a-dimethyl-1H,2H,3H,3aH,3bH,4H,6H,7H,8H,9H,9aH,9bH,10H,11H,11aH-cyclopenta[a]phenanthren-1-yl]pentanoyl]piperazine-1-carboxylate]	> 10000	< 250	
C[C@H](CCC(=O)N1CCN(C(=O)C(C)(C)O)CC1)[C@H]1CC[C@H]2[C@@H]3CC=C4C[C@@H](O)CC[C@]4(C)[C@H]3CC[C@]12C [Example 336, (R)-4-((3S,8S,9S,10R,13R,14S,17R)-3-hydroxy-10,13-dimethyl-2,3,4,7,8,9,10,11,12,13,14,15,16,17-tetradecahydro-1H-cyclopenta[a]phenanthren-17-yl)-1-(4-(2-hydroxy-2-methylpropanoyl)piperazin-1-yl)pentan-1-one]	> 10000	< 250	
C[C@H](CCC(=O)N1CCNC(=O)C1)[C@H]1CC[C@H]2[C@@H]3CC=C4C[C@@H](O)CC[C@]4(C)[C@H]3CC[C@]12C [Example 362, 4-[(4R)-4-[(1R,3aS,3bS,7S,9aR,9bS,11aR)-7-hydroxy-9a,11a-dimethyl-1H,2H,3H,3aH,3bH,4H,6H,7H,8H,9H,9aH,9bH,10H,11H,11aH-cyclopenta[a]phenanthren-1-yl]pentanoyl]piperazin-2-one]	> 10000	250 to 1000	
CON(CCO)C(=O)CC[C@@H](C)[C@H]1CC[C@H]2[C@@H]3CC=C4C[C@@H](O)CC[C@]4(C)[C@H]3CC[C@]12C [Example 62, (R)-4-((3S,8S,9S,10R,13R,14S,17R)-3-hydroxy-10,13-dimethyl-2,3,4,7,8,9,10,11,12,13,14,15,16,17-tetradecahydro-1H-cyclopenta[a]phenanthren-17-yl)-N-(2-hydroxyethyl)-N-methoxypentanamide]	250 to 1000	250 to 1000	
COc1cccnc1N1CCN(C(=O)CC[C@@H](C)[C@H]2CC[C@H]3[C@@H]4CC=C5C[C@@H](O)CC[C@]5(C)[C@H]4CC[C@]23C)CC1 [Example 613, (R)-4-((3S,8S,9S,10R,13R,14S,17R)-3-hydroxy-10,13-dimethyl-2,3,4,7,8,9,10,11,12,13,14,15,16,17-tetradecahydro-1H-cyclopenta[a]phenanthren-17-yl)-1-(4-(3-methoxypyridin-2-yl)piperazin-1-yl)pentan-1-one]	> 10000	< 250	
Cc1nccc(N2CCN(C(=O)CC[C@@H](C)[C@H]3CC[C@H]4[C@@H]5CC=C6C[C@@H](O)CC[C@]6(C)[C@H]5CC[C@]34C)CC2)n1 [Example 205, (R)-4-((3S,8S,9S,10R,13R,14S,17R)-3-hydroxy-10,13-dimethyl-2,3,4,7,8,9,10,11,12,13,14,15,16,17-tetradecahydro-1H-cyclopenta[a]phenanthren-17-yl)-1-(4-(2-methylpyrimidin-4-yl)piperazin-1-yl)pentan-1-one]	> 10000	< 250	
C[C@H](CCC(=O)N(C)C)[C@H]1CC[C@H]2[C@@H]3CC=C4C[C@@H](F)CC[C@]4(C)[C@H]3CC[C@]12C [Example 126, (R)-4-((3S,8S,9S,10R,13R,14S,17R)-3-fluoro-10,13-dimethyl-2,3,4,7,8,9,10,11,12,13,14,15,16,17-tetradecahydro-1H-cyclopenta[a]phenanthren-17-yl)-N,N-dimethylpentanamide]	> 10000	> 10000	
C[C@H](CCC(=O)N1CCN(c2cc(N)ncn2)CC1)[C@H]1CC[C@H]2[C@@H]3CC=C4C[C@@H](O)CC[C@]4(C)[C@H]3CC[C@]12C [Example 633, (R)-1-(4-(6-aminopyrimidin-4-yl)piperazin-1-yl)-4-((3S,8S,9S,10R,13R,14S,17R)-3-hydroxy-10,13-dimethyl-2,3,4,7,8,9,10,11,12,13,14,15,16,17-tetradecahydro-1H-cyclopenta[a]phenanthren-17-yl)pentan-1-one]	> 10000	< 250	
C[C@@H]1CCN(C(=O)CC[C@@H](C)[C@H]2CC[C@H]3[C@@H]4CC=C5C[C@@H](O)CC[C@]5(C)[C@H]4CC[C@]23C)C1 [Example 115, (R)-4-((3S,8S,9S,10R,13R,14S,17R)-3-hydroxy-10,13-dimethyl-2,3,4,7,8,9,10,11,12,13,14,15,16,17-tetradecahydro-1H-cyclopenta[a]phenanthren-17-yl)-1-((R)-3-methylpyrrolidin-1-yl)pentan-1-one]	250 to 1000	< 250	
COC(=O)N1CCN(C(=O)NC[C@@H](C)[C@H]2CC[C@H]3[C@@H]4CC=C5C[C@@H](O)CC[C@]5(C)[C@H]4CC[C@]23C)CC1 [Example 236, Methyl 4-(((S)-2-((3S,8S,9S,10R,13S,14S,17R)-3-hydroxy-10,13-dimethyl-2,3,4,7,8,9,10,11,12,13,14,15,16,17-tetradecahydro-1H-cyclopenta[a]phenanthren-17-yl)propyl)carbamoyl)piperazine-1-carboxylate]	> 10000	< 250	
C[C@H](CCC(=O)N1CCN(C(=O)N(C)C2CC2)CC1)[C@H]1CC[C@H]2[C@@H]3CC=C4C[C@@H](O)CC[C@]4(C)[C@H]3CC[C@]12C [Example 211, N-cyclopropyl-4-((R)-4-((3S,8S,9S,10R,13R,14S,17R)-3-hydroxy-10,13-dimethyl-2,3,4,7,8,9,10,11,12,13,14,15,16,17-tetradecahydro-1H-cyclopenta[a]phenanthren-17-yl)pentanoyl)-N-methylpiperazine-1-carboxamide]	> 10000		< 250
COc1ncccc1N1CCN(C(=O)CC[C@@H](C)[C@H]2CC[C@H]3[C@@H]4CC=C5C[C@@H](O)CC[C@]5(C)[C@H]4CC[C@]23C)CC1 [Example 612, (R)-4-((3S,8S,9S,10R,13R,14S,17R)-3-hydroxy-10,13-dimethyl-2,3,4,7,8,9,10,11,12,13,14,15,16,17-tetradecahydro-1H-cyclopenta[a]phenanthren-17-yl)-1-(4-(2-methoxypyridin-3-yl)piperazin-1-yl)pentan-1-one]	> 10000	< 250	
C[C@H](C(=O)NCc1ccncc1)[C@H]1CC[C@H]2[C@@H]3CC=C4C[C@@H](O)CC[C@]4(C)[C@H]3CC[C@]12C [Example 599, (S)-2-((3S,8S,9S,10R,13S,14S,17R)-3-hydroxy-10,13-dimethyl-2,3,4,7,8,9,10,11,12,13,14,15,16,17-tetradecahydro-1H-cyclopenta[a]phenanthren-17-yl)-N-(pyridin-4-ylmethyl)propanamide]	> 10000	1000 to 10000	
CON(C[C@@H](C)O)C(=O)CC[C@@H](C)[C@H]1CC[C@H]2[C@@H]3CC=C4C[C@@H](O)CC[C@]4(C)[C@H]3CC[C@]12C [Example 70, (R)-4-((3S,8S,9S,10R,13R,14S,17R)-3-hydroxy-10,13-dimethyl-2,3,4,7,8,9,10,11,12,13,14,15,16,17-tetradecahydro-1H-cyclopenta[a]phenanthren-17-yl)-N—((R)-2-hydroxypropyl)-N-methoxypentanamide]	250 to 1000	250 to 1000	
